“And” between values parts separate entries of the source, which are not always exact repeats. Equal entries are not always repeated. Where two headings read alike, the source gives them in different places. Marks after values point to notes of the source that are not given here. Each block holds one compound with its values, some of them ahead of it.
Assays:
[1] = tested on: methicillin-resistant S. aureus 63718; assay: MIC, broth microdilution; format: cell-based, Staphylococcus aureus; details: Staphylococcus aureus, read-out: MICs
Method in brief: (§1)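 Broth microdilution in CaMH (staphylococci) or BHI (enterococci), 5 × 10^5 CFU/mL per well, 37 °C aerobic overnight.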

S. aureus ATCC 29213 = assay: MIC, broth microdilution; format: cell-based, Staphylococcus aureus; details: Staphylococcus aureus
Method in brief: as §1

[2] = tested on: methicillin-resistant S. aureus SA 630; assay: MIC, broth microdilution; format: cell-based, Staphylococcus aureus; details: Staphylococcus aureus, read-out: MICs
Method in brief: as §1

MRSA SA 3202 = assay: synergy with antibiotics (FIC index, checkerboard); format: cell-based, Staphylococcus aureus; details: in the combination of that line
Excerpt: (§2) Representatives from various classes were chosen in order to study the potential difference in synergistic activity according to the diverse mechanisms of action and resistance of these drugs. The method of minimal fractional inhibitory concentration (FIC) index (FICI) in a microtitration plate was used. FICI ≤ 0.5 means synergy; 0.5 < FICI < 1 means additivity; 1 ≤ FICI < 4 means indifference; and FICI ≥ 4 means antagonism.
(§3) For synergy effect study, a method of fractional inhibitory concentration was used. […] Raw H was used for the evaluation of MIC(A); column 12 was used for evaluation of MIC(B). The plate was inoculated by the bacterial suspension to reach final concentration of 5 × 10^5 CFU/mL in the wells. The fractional inhibitory concentration (FIC) index was calculated using the concentrations in the first nonturbid (clear) well found in each row and column along the turbidity/nonturbidity interface. To interpret the combined effect, the lowest FICI was used. A ΣFIC ≤ 0.5 means synergy; 0.5 < ΣFIC < 1 means additivity; 1 ≤ ΣFIC < 4 means indifference; and ΣFIC ≥ 4 means antagonism. The tests were made in duplicate, and the results were averaged.

VRE 342B = assay: time-kill study; format: cell-based, Enterococcus faecalis; details: VRE1
Excerpt: (§4) Time-kill studies are used to evaluate the dynamics of antibacterial activity. As mentioned above, a pre-test to determine minimum bactericidal concentration (MBC) by sub-cultivation of aliquots on agar was made (see Section 3.4). […] Time-kill studies were made with methicillin-susceptible S. aureus ATCC 29213 and methicillin-resistant MRSA 63718, vancomycin-susceptible E. faecalis ATCC 29212, and all three VRE isolates. Vancomycin was used as a control (Table 6).
(§5) The method of time-kill curves was used to study the bactericidal effect of selected compounds. […] The experiment was performed with S. aureus ATCC 29213, MRSA 63718, E. faecalis ATCC 29212, and all VRE isolates. […] The tubes were inoculated by bacterial inoculum in the exponential phase of growth to get a final concentration of 7.5 × 10^6 CFU/mL. The tubes were incubated statically at 37 °C. Immediately after inoculation and after 4, 6, 8, and 24 h, 100 µL of the sample was serially diluted (1:10) in PBS. Then, 2 × 20 µL from each dilution were put onto a Mueller–Hinton agar plate and cultivated at 37 °C for 24 h. After incubation, CFUs of dilutions containing 5–50 colonies were counted. Results were expressed as a decrease of log10(CFU) in each time compared to the starting inoculum. Bactericidal effect is defined as a −3log decrease of CFU/mL compared to the growth control in time 0. The test was made in duplicate on two separate occasions, and the results were averaged. The growth curves with error bars are shown in Figures S1 and S2 in Supplementary Materials.

VRE 725B [3] = assay: time-kill study; format: cell-based, Enterococcus faecalis; details: VRE3
Excerpt: as §4, §5

E. faecalis ATCC 29212 = assay: time-kill study; format: cell-based, Enterococcus faecalis; details: EF
Excerpt: as §4, §5

VRE 368 = assay: time-kill study; format: cell-based, Enterococcus faecalis; details: VRE2
Excerpt: as §4, §5

VRE 725B [4] = assay: synergy with antibiotics (FIC index, checkerboard); format: cell-based, Enterococcus faecalis; details: combination with VAN, data not shown
Excerpt: as §2
The used VRE strains were isolated from American crows by Oravcova et al., and their genetic profiles were characterized. All the VRE strains were carrying genes vanA, tetM, and ermB. Strains VRE 368 and VRE 725B carried gene aac, which provided acquired aminoglycoside resistance.
as §3

[5] = ATCC29213, SA = S. aureus ATCC 29213, read-out: MICs
[6] = ATCC29213, Table 7, planktonic cells of S. aureus ATCC 29213, read-out: MIC

MIC ([1]; MRSA1 = S. aureus 63718): 16 µg/mL and 31.6 µM
MIC (S. aureus ATCC 29213; [5]): 16 µg/mL and 31.6 µM
MIC (S. aureus ATCC 29213; [6]): 16 µg/mL
MIC ([2]; MRSA2 = SA 630): 32 µg/mL and 63.2 µM
SMILES: CCCCCOc1cccc(NC(=O)OC(CN(CCC)CCC)CN2CCCC2)c1.Cl.Cl (stereo not shown) [1f, 1-[3-(dipropylammonio)-2-({[3-(pentyloxy)phenyl]carbamoyl}-oxy)propyl]pyrrolidinium dichloride]

SMILES: CN[C@H](CC(C)C)C(=O)N[C@H]1C(=O)N[C@@H](CC(N)=O)C(=O)N[C@H]2C(=O)N[C@H]3C(=O)N[C@H](C(=O)N[C@H](C(=O)O)c4cc(O)cc(O)c4-c4cc3ccc4O)[C@H](O)c3ccc(c(Cl)c3)Oc3cc2cc(c3O[C@@H]2O[C@H](CO)[C@@H](O)[C@H](O)[C@H]2O[C@H]2C[C@](C)(N)[C@H](O)[C@H](C)O2)Oc2ccc(cc2Cl)[C@H]1O [VAN, vancomycin, reference compound]
MIC [1]: 2 µg/mL and 1.38 µM
MIC (S. aureus ATCC 29213; ATCC29213, read-out: MICs): 1 µg/mL and 0.69 µM
MIC [2]: 1 µg/mL and 0.69 µM

MIC ([1]; MRSA1 = S. aureus 63718): 8 µg/mL and 15 µM
MIC (S. aureus ATCC 29213; [5]): 8 µg/mL and 15 µM
MIC (S. aureus ATCC 29213; [6]): 8 µg/mL
MIC ([2]; MRSA2 = SA 630): 8 µg/mL and 15 µM
SMILES: CCCCCCCOc1cccc(NC(=O)OC(CN(CCC)CCC)CN2CCCC2)c1.Cl.Cl (stereo not shown) [1h, 1-[3-(Dipropylammonio)-2-({[3-(heptyloxy)phenyl]carbamoyl}oxy)propyl]pyrrolidinium dichloride]
concentrations of the tested compound/clinically used antibiotic providing additivity or synergy (MRSA SA 3202): 4 µg/mL
Log10 Difference in CFU/mL from Inoculum (VRE 342B; 1 × MIC, 4 h): 0.07 log10 CFU/mL
Log10 Difference in CFU/mL from Inoculum (VRE 342B; 1 × MIC, 6 h): 1.08 log10 CFU/mL
Log10 Difference in CFU/mL from Inoculum (VRE 342B; 1 × MIC, 8 h): −0.08 log10 CFU/mL
Log10 Difference in CFU/mL from Inoculum (VRE 342B; 1 × MIC, 24 h): 1.42 log10 CFU/mL
Log10 Difference in CFU/mL from Inoculum (VRE 342B; 2 × MIC, 4 h): 0.09 log10 CFU/mL
Log10 Difference in CFU/mL from Inoculum (VRE 342B; 2 × MIC, 6 h): 0.41 log10 CFU/mL
Log10 Difference in CFU/mL from Inoculum (VRE 342B; 2 × MIC, 8 h): −0.02 log10 CFU/mL
Log10 Difference in CFU/mL from Inoculum (VRE 342B; 2 × MIC, 24 h): 0.47 log10 CFU/mL
Log10 Difference in CFU/mL from Inoculum (VRE 342B; 4 × MIC, 4 h): −0.78 log10 CFU/mL
Log10 Difference in CFU/mL from Inoculum (VRE 342B; 4 × MIC, 6 h): −0.99 log10 CFU/mL
Log10 Difference in CFU/mL from Inoculum (VRE 342B; 4 × MIC, 8 h): −0.66 log10 CFU/mL
Log10 Difference in CFU/mL from Inoculum (VRE 342B; 4 × MIC, 24 h): 0.85 log10 CFU/mL
Log10 Difference in CFU/mL from Inoculum (VRE 725B [3]; 1 × MIC, 4 h): −0.70 log10 CFU/mL
Log10 Difference in CFU/mL from Inoculum (VRE 725B [3]; 1 × MIC, 6 h): 0.08 log10 CFU/mL
Log10 Difference in CFU/mL from Inoculum (VRE 725B [3]; 1 × MIC, 8 h): −0.05 log10 CFU/mL
Log10 Difference in CFU/mL from Inoculum (VRE 725B [3]; 1 × MIC, 24 h): 0.92 log10 CFU/mL
Log10 Difference in CFU/mL from Inoculum (VRE 725B [3]; 2 × MIC, 4 h): −1.81 log10 CFU/mL
Log10 Difference in CFU/mL from Inoculum (VRE 725B [3]; 2 × MIC, 6 h): −1.31 log10 CFU/mL
Log10 Difference in CFU/mL from Inoculum (VRE 725B [3]; 2 × MIC, 8 h): −0.81 log10 CFU/mL
Log10 Difference in CFU/mL from Inoculum (VRE 725B [3]; 2 × MIC, 24 h): 0.95 log10 CFU/mL
Log10 Difference in CFU/mL from Inoculum (VRE 725B [3]; 4 × MIC, 4 h): −1.75 * log10 CFU/mL
Log10 Difference in CFU/mL from Inoculum (VRE 725B [3]; 4 × MIC, 6 h): −0.76 log10 CFU/mL
Log10 Difference in CFU/mL from Inoculum (VRE 725B [3]; 4 × MIC, 8 h): −0.76 log10 CFU/mL
Log10 Difference in CFU/mL from Inoculum (VRE 725B [3]; 4 × MIC, 24 h): 1.08 log10 CFU/mL
Log10 Difference in CFU/mL from Inoculum (E. faecalis ATCC 29212; 1 × MIC, 4 h): −0.64 log10 CFU/mL
Log10 Difference in CFU/mL from Inoculum (E. faecalis ATCC 29212; 1 × MIC, 6 h): 0.16 log10 CFU/mL
Log10 Difference in CFU/mL from Inoculum (E. faecalis ATCC 29212; 1 × MIC, 8 h): 0.24 log10 CFU/mL
Log10 Difference in CFU/mL from Inoculum (E. faecalis ATCC 29212; 1 × MIC, 24 h): 0.34 log10 CFU/mL
Log10 Difference in CFU/mL from Inoculum (E. faecalis ATCC 29212; 2 × MIC, 4 h): −1.87 log10 CFU/mL
Log10 Difference in CFU/mL from Inoculum (E. faecalis ATCC 29212; 2 × MIC, 6 h): −1.36 log10 CFU/mL
Log10 Difference in CFU/mL from Inoculum (E. faecalis ATCC 29212; 2 × MIC, 8 h): −0.86 log10 CFU/mL
Log10 Difference in CFU/mL from Inoculum (E. faecalis ATCC 29212; 2 × MIC, 24 h): 0.42 log10 CFU/mL
Log10 Difference in CFU/mL from Inoculum (E. faecalis ATCC 29212; 4 × MIC, 4 h): −2.57 * log10 CFU/mL
Log10 Difference in CFU/mL from Inoculum (E. faecalis ATCC 29212; 4 × MIC, 6 h): −2.23 * log10 CFU/mL
Log10 Difference in CFU/mL from Inoculum (E. faecalis ATCC 29212; 4 × MIC, 8 h): −1.62 log10 CFU/mL
Log10 Difference in CFU/mL from Inoculum (E. faecalis ATCC 29212; 4 × MIC, 24 h): 0.49 log10 CFU/mL
Log10 Difference in CFU/mL from Inoculum (VRE 368; 1 × MIC, 4 h): 0.46 log10 CFU/mL
Log10 Difference in CFU/mL from Inoculum (VRE 368; 1 × MIC, 6 h): 0.71 log10 CFU/mL
Log10 Difference in CFU/mL from Inoculum (VRE 368; 1 × MIC, 8 h): 1.25 log10 CFU/mL
Log10 Difference in CFU/mL from Inoculum (VRE 368; 1 × MIC, 24 h): 1.13 log10 CFU/mL
Log10 Difference in CFU/mL from Inoculum (VRE 368; 2 × MIC, 4 h): 0.28 log10 CFU/mL
Log10 Difference in CFU/mL from Inoculum (VRE 368; 2 × MIC, 6 h): 0.54 log10 CFU/mL
Log10 Difference in CFU/mL from Inoculum (VRE 368; 2 × MIC, 8 h): −0.37 log10 CFU/mL
Log10 Difference in CFU/mL from Inoculum (VRE 368; 2 × MIC, 24 h): 0.66 log10 CFU/mL
Log10 Difference in CFU/mL from Inoculum (VRE 368; 4 × MIC, 4 h): −0.32 log10 CFU/mL
Log10 Difference in CFU/mL from Inoculum (VRE 368; 4 × MIC, 6 h): 0.05 log10 CFU/mL
Log10 Difference in CFU/mL from Inoculum (VRE 368; 4 × MIC, 8 h): 0.22 log10 CFU/mL
Log10 Difference in CFU/mL from Inoculum (VRE 368; 4 × MIC, 24 h): 0.37 log10 CFU/mL
effect of the combination with VAN (VRE 725B [4]): indifferent effect

Reference: paper PMC7168207, “Dibasic Derivatives of Phenylcarbamic Acid as Prospective Antibacterial Agents Interacting with Cytoplasmic Membrane” (Antibiotics, 2020)
